According to US9932341B2, “Use of pyrazolopyrimidine derivatives for the treatment of PI3K-delta related disorders” (Incyte Corporation, priority 2013, dated 2018):

Each molecule was assayed against PI3Kδ (p110δ/p85α) (Homo sapiens (Human), UniProt O00329) (assay: PI3Kδ Scintillation Proximity Assay (Example A3)). Conditions: 20 μM ATP, 20 μM PIP2, 4 nM PI3Kδ, read-out: PI3Kδ SPA IC50.
Sequence of PI3Kδ (p110δ/p85α) (O00329 whole entry): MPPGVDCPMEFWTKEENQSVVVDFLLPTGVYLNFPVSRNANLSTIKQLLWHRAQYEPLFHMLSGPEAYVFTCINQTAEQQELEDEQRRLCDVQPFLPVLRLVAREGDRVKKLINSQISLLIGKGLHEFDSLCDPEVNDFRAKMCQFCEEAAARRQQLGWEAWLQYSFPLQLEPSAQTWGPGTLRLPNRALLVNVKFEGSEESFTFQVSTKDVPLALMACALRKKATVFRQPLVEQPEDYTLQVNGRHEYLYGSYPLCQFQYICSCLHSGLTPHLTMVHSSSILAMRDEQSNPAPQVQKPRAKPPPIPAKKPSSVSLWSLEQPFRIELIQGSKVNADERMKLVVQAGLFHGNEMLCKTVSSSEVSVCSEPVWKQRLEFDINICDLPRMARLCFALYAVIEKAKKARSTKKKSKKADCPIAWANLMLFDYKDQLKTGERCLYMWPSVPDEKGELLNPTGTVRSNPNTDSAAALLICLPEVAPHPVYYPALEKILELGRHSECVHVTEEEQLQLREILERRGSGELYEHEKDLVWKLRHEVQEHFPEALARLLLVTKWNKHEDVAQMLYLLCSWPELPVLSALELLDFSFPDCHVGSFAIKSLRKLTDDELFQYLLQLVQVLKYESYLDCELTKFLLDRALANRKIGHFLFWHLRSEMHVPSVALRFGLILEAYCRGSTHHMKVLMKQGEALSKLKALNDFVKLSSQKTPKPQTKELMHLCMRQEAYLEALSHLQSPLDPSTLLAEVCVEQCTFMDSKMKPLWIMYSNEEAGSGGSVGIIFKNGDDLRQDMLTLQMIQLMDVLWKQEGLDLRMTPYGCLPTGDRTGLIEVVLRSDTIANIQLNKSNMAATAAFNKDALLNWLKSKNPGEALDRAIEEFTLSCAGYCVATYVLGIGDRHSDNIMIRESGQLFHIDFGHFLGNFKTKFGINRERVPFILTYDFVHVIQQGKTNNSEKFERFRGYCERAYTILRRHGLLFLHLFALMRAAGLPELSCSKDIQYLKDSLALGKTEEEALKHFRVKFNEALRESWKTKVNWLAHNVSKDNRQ
Sequence of PI3Kδ (p110δ/p85α) (P27986 whole entry partner): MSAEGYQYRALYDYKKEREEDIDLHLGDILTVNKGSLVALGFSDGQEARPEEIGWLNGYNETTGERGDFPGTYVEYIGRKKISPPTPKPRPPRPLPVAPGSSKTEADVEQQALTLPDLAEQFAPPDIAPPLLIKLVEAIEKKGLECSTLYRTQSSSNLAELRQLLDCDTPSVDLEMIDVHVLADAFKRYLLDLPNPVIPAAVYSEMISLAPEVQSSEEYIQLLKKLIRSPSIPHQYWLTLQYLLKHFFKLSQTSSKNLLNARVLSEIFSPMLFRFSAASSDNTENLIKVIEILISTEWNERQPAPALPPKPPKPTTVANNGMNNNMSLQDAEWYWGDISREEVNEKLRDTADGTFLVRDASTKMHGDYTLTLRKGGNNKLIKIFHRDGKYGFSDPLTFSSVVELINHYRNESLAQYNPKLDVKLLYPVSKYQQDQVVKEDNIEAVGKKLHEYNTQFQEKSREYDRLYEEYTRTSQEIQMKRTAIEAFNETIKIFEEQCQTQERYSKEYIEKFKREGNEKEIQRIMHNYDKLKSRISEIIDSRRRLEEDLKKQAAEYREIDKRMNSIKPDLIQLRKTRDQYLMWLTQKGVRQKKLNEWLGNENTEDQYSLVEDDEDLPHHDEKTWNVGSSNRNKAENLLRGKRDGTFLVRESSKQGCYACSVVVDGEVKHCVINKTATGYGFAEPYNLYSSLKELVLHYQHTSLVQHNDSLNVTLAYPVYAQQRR
Type: biochemical
Protocol: [γ-^33P]ATP (10 mCi/mL) was purchased from PerkinElmer (Waltham, Mass.). […] PI3Kδ (p110δ/p85α) was purchased from Millipore (Bedford, Mass.). ATP, MgCl2, DTT, EDTA, MOPS and CHAPS were purchased from Sigma-Aldrich (St. Louis, Mo.). Wheat Germ Agglutinin (WGA) YSi SPA Scintillation Beads was purchased from GE healthcare life sciences (Piscataway, N.J.).
The kinase reaction was conducted in polystyrene 384-well matrix white plate from Thermo Fisher Scientific in a final volume of 25 μL. Inhibitors were first diluted serially in DMSO and added to the plate wells before the addition of other reaction components. The final concentration of DMSO in the assay was 0.5%. The PI3K assays were carried out at room temperature in 20 mM MOPS, pH 6.7, 10 mM MgCl2, 5 mM DTT and CHAPS 0.03%. Reactions were initiated by the addition of ATP, the final reaction mixture consisted of 20 μM PIP2, 20 μM ATP, 0.2 μCi [γ-^33P] ATP, 4 nM PI3Kδ. […] 25 mM EDTA, 400 μM ATP. The final concentration of SPA beads was 1.0 mg/mL. After the plate sealing, plates were shaken overnight at room temperature and centrifuged at 1800 rpm for 10 minutes, the radioactivity of the product was determined by scintillation counting on Topcount (PerkinElmer). IC50 determination was performed by fitting the curve of percent control activity versus the log of the inhibitor concentration using the GraphPad Prism 3.0 software.
For “1-(1-(5-chloro-2-methoxy-4-methyl-3-(pyrimidin-5-yl)phenyl)ethyl)-3-methyl-1H-pyrazolo[3,4-d]pyrimidin-4-amine [Example 168]”, the IC50 was under 10 nM. Molecule `COc1c(C(C)n2nc(C)c3c(N)ncnc32)cc(Cl)c(C)c1C1CN(CC2CC2)C1` (racemic) [Example 4, 1-(1-{5-Chloro-3-[1-(cyclopropylmethyl)azetidin-3-yl]-2-methoxy-4-methylphenyl}ethyl)-3-methyl-1H-pyrazolo[3,4-d]pyrimidin-4-amine bis(trifluoroacetate)] has an IC50 of under 10 nM. Work on `COc1c(C(C)n2nc(C)c3c(N)ncnc32)cc(Cl)c(C)c1C1CN(C)C1` (racemic) [Example 5, 1-{1-[5-chloro-2-methoxy-4-methyl-3-(1-methylazetidin-3-yl)phenyl]ethyl}-3-methyl-1H-pyrazolo[3,4-d]pyrimidin-4-amine] yielded an IC50 of under 10 nM. Molecule `CCN1CC(c2c(C)c(Cl)cc(C(C)n3nc(C)c4c(N)ncnc43)c2OC)C1` (racemic) [Example 6, 1-{1-[5-Chloro-3-(1-ethylazetidin-3-yl)-2-methoxy-4-methylphenyl]ethyl}-3-methyl-1H-pyrazolo[3,4-d]pyrimidin-4-amine] has an IC50 of under 10 nM. With `COc1c(C(C)n2nc(C)c3c(N)ncnc32)cc(Cl)c(C)c1C1CN(CC(C)C)C1` (racemic) [Example 7, 1-{1-[5-Chloro-3-(1-isobutylazetidin-3-yl)-2-methoxy-4-methylphenyl]ethyl}-3-methyl-1H-pyrazolo[3,4-d]pyrimidin-4-amine] the IC50 was under 10 nM. For `COCCN1CC(c2c(C)c(Cl)cc(C(C)n3nc(C)c4c(N)ncnc43)c2OC)C1` (racemic) [Example 9, 1-(1-{5-Chloro-2-methoxy-3-[1-(2-methoxyethyl)azetidin-3-yl]-4-methylphenyl}ethyl)-3-methyl-1H-pyrazolo[3,4-d]pyrimidin-4-amine], the IC50 was under 10 nM. In the case of `CNC(=O)N1CC(c2c(C)c(Cl)cc(C(C)n3nc(C)c4c(N)ncnc43)c2OC)C1` (racemic) [Example 10, 3-{3-[1-(4-Amino-3-methyl-1H-pyrazolo[3,4-d]pyrimidin-1-yl)ethyl]-5-chloro-2-methoxy-6-methylphenyl}-N-methylazetidine-1-carboxamide], the IC50 is reported as under 10 nM. With `CNC(=O)c1cc(-c2c(C)c(Cl)cc(C(C)n3nc(C)c4c(N)ncnc43)c2OC)ccn1` (racemic) [Example 17, 4-(3-(1-(4-amino-3-methyl-1H-pyrazolo[3,4-c]pyrimidin-1-yl)ethyl)-5-chloro-2-methoxy-6-methylphenyl)-N-methylpicolinamide] the IC50 was under 10 nM. Molecule `COc1c(C(C)n2nc(C)c3c(N)ncnc32)cc(Cl)c(C)c1-c1ccnc(C(=O)NCCO)c1` (racemic) [Example 18, 4-{3-[1-(4-Amino-3-methyl-1H-pyrazolo[3,4-d]pyrimidin-1-yl)ethyl]-5-chloro-2-methoxy-6-methylphenyl}-N-(2-hydroxyethyl)pyridine-2-carboxamide] has an IC50 of under 10 nM. Work on `COc1c(C(C)n2nc(C)c3c(N)ncnc32)cc(Cl)c(C)c1-c1ccnc(C(=O)N(C)CCO)c1` (racemic) [Example 19, 4-{3-[1-(4-amino-3-methyl-1H-pyrazolo[3,4-d]pyrimidin-1-yl)ethyl]-5-chloro-2-methoxy-6-methylphenyl}-N-(2-hydroxyethyl)-N-methylpyridine-2-carboxamide] yielded an IC50 of under 10 nM. Molecule `CCOc1c(C(C)n2nc(C)c3c(N)ncnc32)cc(Cl)c(C#N)c1-c1cncc(S(C)(=O)=O)c1` (racemic) [Example 43, 4-[1-(4-amino-3-methyl-1H-pyrazolo[3,4-d]pyrimidin-1-yl)ethyl]-6-chloro-3-ethoxy-2-[5-(methylsulfonyl)pyridin-3-yl]benzonitrile] has an IC50 of under 10 nM. In the case of `CCOc1c(C(C)n2nc(C)c3c(N)ncnc32)cc(Cl)c(C#N)c1-c1ccc(C(=O)N(C)C)nc1` (racemic) [Example 44, 5-(3-(1-(4-amino-3-methyl-1H-pyrazolo[3,4-d]pyrimidin-1-yl)ethyl)-5-chloro-6-cyano-2-ethoxyphenyl)-N,N-dimethylpicolinamide], the IC50 is reported as under 10 nM. In the case of `COc1c(C(C)n2nc(C)c3c(N)ncnc32)cc(Cl)c(F)c1C1CN(CCO)C1` (racemic) [Example 71, 2-(3-{3-[1-(4-Amino-3-methyl-1H-pyrazolo[3,4-d]pyrimidin-1-yl)ethyl]-5-chloro-6-fluoro-2-methoxyphenyl}azetidin-1-yl)ethanol], the IC50 is reported as under 10 nM. Molecule `CCOc1c(C(C)n2nc(C)c3c(N)ncnc32)cc(Cl)c(C)c1C1CN(CCO)C1` (racemic) [Example 95, 2-(3-{3-[1-(4-Amino-3-methyl-1H-pyrazolo[3,4-d]pyrimidin-1-yl)ethyl]-5-chloro-2-ethoxy-6-methylphenyl}azetidin-1-yl)ethanol bis(trifluoroacetate)] has an IC50 of under 10 nM. Molecule `CCOc1c(C(C)n2nc(C)c3c(N)ncnc32)cc(Cl)c(F)c1C1CN(CC(C)(C)O)C1` (racemic) [Example 140, 1-(3-{3-[1-(4-Amino-3-methyl-1H-pyrazolo[3,4-d]pyrimidin-1-yl)ethyl]-5-chloro-2-ethoxy-6-fluorophenyl}azetidin-1-yl)-2-methylpropan-2-ol] has an IC50 of under 10 nM. For `CCOc1c(C(C)n2nc(C)c3c(N)ncnc32)cc(Cl)c(F)c1C1CN(CC(F)(F)F)C1` (racemic) [Example 141, 1-(1-{5-Chloro-2-ethoxy-4-fluoro-3-[1-(2,2,2-trifluoroethyl)azetidin-3-yl]phenyl}ethyl)-3-methyl-1H-pyrazolo[3,4-d]pyrimidin-4-amine], the IC50 was under 10 nM. Work on `COc1c(C(C)n2nc(C)c3c(N)ncnc32)cc(Cl)c(C)c1C1CCN(C)CC1` (racemic) [Example 163, 1-{1-[5-Chloro-2-methoxy-4-methyl-3-(1-methylpiperidin-4-yl)phenyl]ethyl}-3-methyl-1H-pyrazolo[3,4-d]pyrimidin-4-amine] yielded an IC50 of under 10 nM. `COc1c(C(C)n2nc(C)c3c(N)ncnc32)cc(Cl)c(C)c1C1CCN(CC(C)(C)O)CC1` (racemic) [Example 164, 1-(4-{3-[1-(4-Amino-3-methyl-1H-pyrazolo[3,4-d]pyrimidin-1-yl)ethyl]-5-chloro-2-methoxy-6-methylphenyl}piperidin-1-yl)-2-methylpropan-2-ol] showed an IC50 of under 10 nM. `CCOc1c(C(C)n2nc(C)c3c(N)ncnc32)cc(Cl)c(C#N)c1-c1ccc(C(C)(C)O)nc1` (racemic) [Example 316, 4-[1-(4-amino-3-methyl-1H-pyrazolo[3,4-d]pyrimidin-1-yl)ethyl]-6-chloro-3-ethoxy-2-[6-(1-hydroxy-1-methylethyl)pyridin-3-yl]benzonitrile] was tested, and the IC50 was under 10 nM. Molecule `CCOc1c(C(C)n2nc(C)c3c(N)ncnc32)cc(Cl)c(C#N)c1N1CCCC1` (racemic) [Example 318, 4-[1-(4-amino-3-methyl-1H-pyrazolo[3,4-d]pyrimidin-1-yl)ethyl]-6-chloro-3-ethoxy-2-pyrrolidin-1-ylbenzo nitrile] has an IC50 of under 10 nM. Molecule `CCOc1c(C(C)n2nc(C)c3c(N)ncnc32)cc(Cl)c(C#N)c1N1CC(OC)C1` (racemic) [Example 319, 4-[1-(4-amino-3-methyl-1H-pyrazolo[3,4-d]pyrimidin-1-yl)ethyl]-6-chloro-3-ethoxy-2-(3-methoxyazetidin-1-yl)benzonitrile] has an IC50 of under 10 nM. `CCOc1c(C(C)n2nc(C)c3c(N)ncnc32)cc(C)c(C#N)c1C1CN(C(C)C)C1` (racemic) [Example 320, 4-[1-(4-amino-3-methyl-1H-pyrazolo[3,4-d]pyrimidin-1-yl)ethyl]-3-ethoxy-2-(1-isopropylazetidin-3-yl)-6-methylbenzonitrile] was tested, and the IC50 was under 10 nM. `COc1c(C(C)n2nc(C)c3c(N)ncnc32)cc(Cl)c(C)c1-c1cnn(CCO)c1` (single isomer, unassigned) [20 (1st peak), 2-(4-(3-(1-(4-Amino-3-methyl-1H-pyrazolo[3,4-d]pyrimidin-1-yl)ethyl)-5-chloro-2-methoxy-6-methylphenyl)-1H-pyrazol-1-yl)ethanol] showed an IC50 of under 10 nM. For `CCOc1c(C(C)n2nc(C)c3c(N)ncnc32)cc(C)c(C#N)c1C1CN(C(=O)C(C)(C)O)C1` (single isomer, unassigned) [322 (1st peak), 4-[1-(4-amino-3-methyl-1H-pyrazolo[3,4-d]pyrimidin-1-yl)ethyl]-3-ethoxy-2-[1-(2-hydroxy-2-methylpropanoyl)azetidin-3-yl]-6-methylbenzonitrile], the IC50 was under 10 nM. `COc1c(C(C)n2nc(C)c3c(N)ncnc32)cc(Cl)c(C)c1C1CNC(=O)CO1` (single isomer, unassigned) [324 (2nd peak), 6-{3-[1-(4-Amino-3-methyl-1H-pyrazolo[3,4-d]pyrimidin-1-yl)ethyl]-5-chloro-2-methoxy-6-methylphenyl}morpholin-3-one] showed an IC50 of under 10 nM. In the case of `COc1c(C(C)n2nc(C)c3c(N)ncnc32)cc(Cl)c(C)c1C1CN(C(C)C)C1` (single isomer, unassigned) [Example 1, 1-{1-[5-Chloro-3-(1-isopropylazetidin-3-yl)-2-methoxy-4-methylphenyl]ethyl}-3-methyl-1H-pyrazolo[3,4-d]pyrimidin-4-amine bis(trifluoroacetate)], the IC50 is reported as under 10 nM.
